Reference: article PMC11233931, “Remodeling tumor‐associated macrophage for anti‐cancer effects by rational design of irreversible inhibition of mitogen‐activated protein kinase‐activated protein kinase 2” (MedComm, 2024)

Tests used:
Test in all cases: Eurofins kinase selectivity profile against 380 other human recombinant kinases (Table S2)
Type in all cases: biochemical
[1] = target: T1, 380 human recombinant protein kinases (Homo sapiens, UniProt O75914); details: PAK3(h), read-out: Inhibition rate
T1 construct: purchased Eurofins (Celle Lévescault)
T1 sequence (O75914 whole entry): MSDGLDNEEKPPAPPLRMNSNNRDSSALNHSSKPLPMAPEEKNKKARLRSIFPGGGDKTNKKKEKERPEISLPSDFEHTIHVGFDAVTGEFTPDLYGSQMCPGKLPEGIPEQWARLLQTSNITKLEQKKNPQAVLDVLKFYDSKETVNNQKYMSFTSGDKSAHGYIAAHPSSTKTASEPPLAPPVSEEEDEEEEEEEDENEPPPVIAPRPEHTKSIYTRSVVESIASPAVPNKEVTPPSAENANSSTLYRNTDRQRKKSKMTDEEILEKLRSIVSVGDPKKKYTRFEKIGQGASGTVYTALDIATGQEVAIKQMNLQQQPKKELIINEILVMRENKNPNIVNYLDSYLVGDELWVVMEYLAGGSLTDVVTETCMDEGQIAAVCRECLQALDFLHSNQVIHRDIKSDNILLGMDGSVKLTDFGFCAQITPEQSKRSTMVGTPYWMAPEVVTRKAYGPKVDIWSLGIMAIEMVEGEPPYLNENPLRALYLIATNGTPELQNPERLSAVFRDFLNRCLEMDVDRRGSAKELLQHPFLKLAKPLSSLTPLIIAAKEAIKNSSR
Procedure, shortened: (§1)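 Outsourced panel: 380 human recombinant kinases; inhibitor tested at various concentrations; purpose: MK2 selectivity check.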

[2] = target: T2, 380 human recombinant protein kinases (Homo sapiens, UniProt P11309); details: Pim-1(h), read-out: Inhibition rate
T2 construct: purchased Eurofins (Celle Lévescault)
T2 sequence (P11309 whole entry): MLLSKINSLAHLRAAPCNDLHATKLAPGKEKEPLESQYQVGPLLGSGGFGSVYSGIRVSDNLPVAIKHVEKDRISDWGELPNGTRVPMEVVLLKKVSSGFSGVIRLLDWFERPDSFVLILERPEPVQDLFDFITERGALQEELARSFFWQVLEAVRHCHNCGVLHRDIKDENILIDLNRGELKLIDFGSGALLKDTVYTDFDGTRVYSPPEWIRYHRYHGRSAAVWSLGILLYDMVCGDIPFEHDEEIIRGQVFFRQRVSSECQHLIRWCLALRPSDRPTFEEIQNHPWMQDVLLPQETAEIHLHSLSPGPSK
Procedure, shortened: as §1

[3] = target: T3, 380 human recombinant protein kinases (Homo sapiens, UniProt P42336, E545K); details: PI3 Kinase (p110α(E545K)/p85α)(h), read-out: Inhibition rate (%)
T3 construct: purchased Eurofins (Celle Lévescault)
T3 sequence (P42336 whole entry E545K): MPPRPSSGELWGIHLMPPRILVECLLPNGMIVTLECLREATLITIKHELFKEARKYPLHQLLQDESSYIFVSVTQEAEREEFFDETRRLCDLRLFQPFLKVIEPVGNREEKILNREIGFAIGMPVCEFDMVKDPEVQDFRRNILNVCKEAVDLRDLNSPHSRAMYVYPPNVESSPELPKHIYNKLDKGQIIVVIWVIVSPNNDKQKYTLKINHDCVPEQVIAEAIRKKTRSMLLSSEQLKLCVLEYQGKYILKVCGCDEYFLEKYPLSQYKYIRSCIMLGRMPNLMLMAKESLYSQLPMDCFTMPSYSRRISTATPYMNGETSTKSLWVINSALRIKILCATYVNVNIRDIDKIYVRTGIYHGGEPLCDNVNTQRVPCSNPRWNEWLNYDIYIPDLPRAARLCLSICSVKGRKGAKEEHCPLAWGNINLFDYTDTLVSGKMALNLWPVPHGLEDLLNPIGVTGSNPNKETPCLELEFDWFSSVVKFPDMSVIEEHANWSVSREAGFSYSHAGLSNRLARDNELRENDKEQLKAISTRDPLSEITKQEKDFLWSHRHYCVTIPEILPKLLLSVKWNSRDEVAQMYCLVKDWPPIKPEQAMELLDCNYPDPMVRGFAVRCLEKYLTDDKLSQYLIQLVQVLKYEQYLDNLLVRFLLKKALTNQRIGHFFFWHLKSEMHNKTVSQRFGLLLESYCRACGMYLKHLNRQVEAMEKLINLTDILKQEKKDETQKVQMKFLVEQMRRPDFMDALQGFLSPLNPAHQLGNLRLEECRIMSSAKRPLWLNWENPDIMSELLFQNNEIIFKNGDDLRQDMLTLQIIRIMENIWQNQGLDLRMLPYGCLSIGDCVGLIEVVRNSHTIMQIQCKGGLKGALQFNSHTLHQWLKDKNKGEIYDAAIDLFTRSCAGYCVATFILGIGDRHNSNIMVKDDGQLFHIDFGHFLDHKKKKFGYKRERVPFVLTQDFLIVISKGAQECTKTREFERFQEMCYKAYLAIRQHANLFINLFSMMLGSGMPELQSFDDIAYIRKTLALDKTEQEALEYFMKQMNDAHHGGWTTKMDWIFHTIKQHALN
Procedure, shortened: as §1

[4] = target: T4, 380 human recombinant protein kinases (Homo sapiens, UniProt P50750); details: CDK9/cyclin T1(h), read-out: Inhibition rate
T4 construct: purchased Eurofins (Celle Lévescault)
Procedure, shortened: as §1

[5] = target: T5, 380 human recombinant protein kinases (Homo sapiens, UniProt P54753); details: EphB3(h), read-out: Inhibition rate
T5 construct: purchased Eurofins (Celle Lévescault)
T5 sequence (P54753 34-998): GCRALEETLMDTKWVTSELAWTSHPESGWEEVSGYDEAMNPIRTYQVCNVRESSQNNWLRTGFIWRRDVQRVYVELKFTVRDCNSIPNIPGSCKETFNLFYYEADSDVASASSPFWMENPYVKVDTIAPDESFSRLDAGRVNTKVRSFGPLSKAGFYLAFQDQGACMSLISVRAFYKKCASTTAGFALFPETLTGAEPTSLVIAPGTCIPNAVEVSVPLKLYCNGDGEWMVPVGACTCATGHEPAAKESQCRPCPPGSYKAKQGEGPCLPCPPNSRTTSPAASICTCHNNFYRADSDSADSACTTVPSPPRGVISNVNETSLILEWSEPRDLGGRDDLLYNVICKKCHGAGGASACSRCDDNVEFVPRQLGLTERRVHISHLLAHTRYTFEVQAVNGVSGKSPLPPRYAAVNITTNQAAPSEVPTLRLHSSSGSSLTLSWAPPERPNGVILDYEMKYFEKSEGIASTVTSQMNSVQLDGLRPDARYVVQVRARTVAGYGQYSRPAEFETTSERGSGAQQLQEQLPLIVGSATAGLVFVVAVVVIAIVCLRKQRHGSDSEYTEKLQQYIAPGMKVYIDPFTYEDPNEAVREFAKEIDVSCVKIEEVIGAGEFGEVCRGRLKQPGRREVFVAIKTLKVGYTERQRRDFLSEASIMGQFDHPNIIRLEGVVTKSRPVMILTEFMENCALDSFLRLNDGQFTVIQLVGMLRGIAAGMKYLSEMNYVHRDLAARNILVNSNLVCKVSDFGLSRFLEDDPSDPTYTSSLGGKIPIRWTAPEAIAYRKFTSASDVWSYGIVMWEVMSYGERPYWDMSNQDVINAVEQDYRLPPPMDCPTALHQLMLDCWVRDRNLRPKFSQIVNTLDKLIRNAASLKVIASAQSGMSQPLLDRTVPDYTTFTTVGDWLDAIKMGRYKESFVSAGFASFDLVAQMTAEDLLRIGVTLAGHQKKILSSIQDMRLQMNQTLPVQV
Procedure, shortened: as §1

[6] = target: T6, 380 human recombinant protein kinases (Homo sapiens, UniProt P57059); details: SIK(h), read-out: Inhibition rate (%)
T6 construct: purchased Eurofins (Celle Lévescault)
Procedure, shortened: as §1

[7] = target: T7, 380 human recombinant protein kinases (Homo sapiens, UniProt Q05655); details: PKCδ(h), read-out: Inhibition rate
T7 construct: purchased Eurofins (Celle Lévescault)
Procedure, shortened: as §1

[8] = target: T8, 380 human recombinant protein kinases (Homo sapiens, UniProt Q14289); details: Pyk2(h), read-out: Inhibition rate
T8 construct: purchased Eurofins (Celle Lévescault)
Procedure, shortened: as §1

[9] = target: T9, 380 human recombinant protein kinases (Homo sapiens, UniProt Q9NYY3); details: Snk(h), read-out: Inhibition rate (%)
T9 construct: purchased Eurofins (Celle Lévescault)
Procedure, shortened: as §1

[10] = target: T10, 380 human recombinant protein kinases (Homo sapiens, UniProt Q9UK32); details: Rsk4(h), read-out: Inhibition rate (%)
T10 construct: purchased Eurofins (Celle Lévescault)
T10 sequence (Q9UK32 whole entry): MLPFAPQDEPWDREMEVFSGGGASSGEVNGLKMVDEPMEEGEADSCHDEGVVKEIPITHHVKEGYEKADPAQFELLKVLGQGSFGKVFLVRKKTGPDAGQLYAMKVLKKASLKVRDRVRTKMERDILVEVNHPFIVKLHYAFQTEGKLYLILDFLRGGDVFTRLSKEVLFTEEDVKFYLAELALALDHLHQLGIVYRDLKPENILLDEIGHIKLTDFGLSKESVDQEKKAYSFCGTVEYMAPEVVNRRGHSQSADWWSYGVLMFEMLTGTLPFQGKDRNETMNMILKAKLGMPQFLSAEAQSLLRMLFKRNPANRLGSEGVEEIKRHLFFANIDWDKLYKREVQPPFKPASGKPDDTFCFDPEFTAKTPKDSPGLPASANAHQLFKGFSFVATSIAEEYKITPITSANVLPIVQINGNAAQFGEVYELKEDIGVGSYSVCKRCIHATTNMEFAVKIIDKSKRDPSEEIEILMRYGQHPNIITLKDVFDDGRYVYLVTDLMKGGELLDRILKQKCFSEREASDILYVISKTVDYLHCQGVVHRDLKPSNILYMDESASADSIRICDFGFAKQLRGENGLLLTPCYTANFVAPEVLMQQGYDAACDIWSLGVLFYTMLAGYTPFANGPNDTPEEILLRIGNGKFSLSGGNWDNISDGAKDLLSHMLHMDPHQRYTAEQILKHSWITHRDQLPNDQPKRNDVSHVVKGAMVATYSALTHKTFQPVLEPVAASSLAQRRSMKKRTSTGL
Procedure, shortened: as §1

[11] = target: T11, 380 human recombinant protein kinases (Homo sapiens, UniProt Q9Y3S1); details: WNK2(h), read-out: Inhibition rate (%)
T11 construct: purchased Eurofins (Celle Lévescault)
T11 sequence (Q9Y3S1 whole entry): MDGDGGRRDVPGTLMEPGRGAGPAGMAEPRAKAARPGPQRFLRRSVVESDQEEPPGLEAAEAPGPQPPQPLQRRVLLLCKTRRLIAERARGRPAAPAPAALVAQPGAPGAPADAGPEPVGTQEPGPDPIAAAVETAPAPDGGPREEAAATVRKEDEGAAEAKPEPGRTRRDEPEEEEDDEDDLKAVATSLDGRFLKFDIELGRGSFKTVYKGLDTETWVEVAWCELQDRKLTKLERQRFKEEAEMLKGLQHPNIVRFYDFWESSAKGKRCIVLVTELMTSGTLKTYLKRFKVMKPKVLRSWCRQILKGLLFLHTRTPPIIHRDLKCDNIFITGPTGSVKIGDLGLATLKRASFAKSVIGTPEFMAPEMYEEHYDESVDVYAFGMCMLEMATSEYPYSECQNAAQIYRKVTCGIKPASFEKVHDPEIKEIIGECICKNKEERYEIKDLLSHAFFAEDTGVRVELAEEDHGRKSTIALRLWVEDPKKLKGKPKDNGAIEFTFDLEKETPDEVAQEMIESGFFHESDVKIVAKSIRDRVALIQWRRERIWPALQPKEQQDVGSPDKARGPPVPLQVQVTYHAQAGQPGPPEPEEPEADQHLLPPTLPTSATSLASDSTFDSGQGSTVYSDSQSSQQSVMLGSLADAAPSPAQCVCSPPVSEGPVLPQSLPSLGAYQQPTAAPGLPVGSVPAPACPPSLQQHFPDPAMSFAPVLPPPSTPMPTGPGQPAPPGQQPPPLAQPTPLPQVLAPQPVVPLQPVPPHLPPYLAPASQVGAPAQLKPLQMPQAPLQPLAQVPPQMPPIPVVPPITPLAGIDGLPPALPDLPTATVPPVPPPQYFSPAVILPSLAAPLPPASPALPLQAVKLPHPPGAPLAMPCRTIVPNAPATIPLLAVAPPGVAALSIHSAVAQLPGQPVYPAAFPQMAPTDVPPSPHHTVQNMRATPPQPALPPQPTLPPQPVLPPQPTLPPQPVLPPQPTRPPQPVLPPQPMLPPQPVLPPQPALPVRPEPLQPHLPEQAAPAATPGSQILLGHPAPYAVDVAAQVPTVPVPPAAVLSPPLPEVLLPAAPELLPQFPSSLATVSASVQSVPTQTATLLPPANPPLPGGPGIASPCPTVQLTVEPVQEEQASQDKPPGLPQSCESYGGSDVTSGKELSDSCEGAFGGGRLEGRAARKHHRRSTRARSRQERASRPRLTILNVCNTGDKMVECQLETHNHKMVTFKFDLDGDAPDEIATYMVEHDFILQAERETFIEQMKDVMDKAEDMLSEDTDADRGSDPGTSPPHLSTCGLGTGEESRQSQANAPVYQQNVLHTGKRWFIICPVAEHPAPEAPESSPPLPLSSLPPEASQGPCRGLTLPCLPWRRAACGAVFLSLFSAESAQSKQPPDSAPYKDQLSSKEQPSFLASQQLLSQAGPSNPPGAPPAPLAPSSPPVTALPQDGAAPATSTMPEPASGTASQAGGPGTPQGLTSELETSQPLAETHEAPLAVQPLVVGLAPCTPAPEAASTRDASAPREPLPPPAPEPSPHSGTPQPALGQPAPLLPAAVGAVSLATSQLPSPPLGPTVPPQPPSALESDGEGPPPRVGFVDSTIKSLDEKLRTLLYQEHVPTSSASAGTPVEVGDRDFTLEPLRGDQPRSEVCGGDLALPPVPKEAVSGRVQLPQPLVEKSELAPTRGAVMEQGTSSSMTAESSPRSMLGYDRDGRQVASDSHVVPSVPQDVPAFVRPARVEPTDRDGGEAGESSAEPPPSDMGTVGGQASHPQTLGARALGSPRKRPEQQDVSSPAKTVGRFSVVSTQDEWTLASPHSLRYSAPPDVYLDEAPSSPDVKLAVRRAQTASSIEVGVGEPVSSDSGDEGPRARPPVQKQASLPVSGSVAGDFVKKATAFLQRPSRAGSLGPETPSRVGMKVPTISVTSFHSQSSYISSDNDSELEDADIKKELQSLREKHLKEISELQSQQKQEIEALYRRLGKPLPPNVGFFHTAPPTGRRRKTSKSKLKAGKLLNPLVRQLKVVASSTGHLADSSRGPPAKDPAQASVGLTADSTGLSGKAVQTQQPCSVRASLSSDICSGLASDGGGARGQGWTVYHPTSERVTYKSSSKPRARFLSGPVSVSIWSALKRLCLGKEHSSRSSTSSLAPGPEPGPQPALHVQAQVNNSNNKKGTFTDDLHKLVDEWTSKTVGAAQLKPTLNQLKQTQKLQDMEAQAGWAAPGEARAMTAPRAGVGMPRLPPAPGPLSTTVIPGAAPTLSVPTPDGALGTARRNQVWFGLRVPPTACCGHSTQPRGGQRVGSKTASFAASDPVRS
Procedure, shortened: as §1

[12] = target: T12, 380 human recombinant protein kinases (Homo sapiens, UniProt Q9Y6E0); details: MST3(h), read-out: Inhibition rate
T12 construct: purchased Eurofins (Celle Lévescault)
Procedure, shortened: as §1

C=CC(=O)Nc1cc(-c2cc(-c3cc4c([nH]3)CCNC4=O)ccn2)ccc1OC(F)(F)F [compound 11]
inhibition at 0.01 µM ([1]; 10 nM): -4% | inhibition at 0.1 µM ([1]; 100 nM): 0% | inhibition at 1 µM ([1]; 1000 nM): -3% | inhibition at 0.01 µM ([2]; 10 nM): -12% | inhibition at 0.1 µM ([2]; 100 nM): 12% | inhibition at 1 µM ([2]; 1000 nM): 41% | inhibition at 0.01 µM ([3]; 10 nM): 2% | inhibition at 0.1 µM ([3]; 100 nM): 2% | inhibition at 1 µM ([3]; 1000 nM): 4% | inhibition at 0.01 µM ([4]; 10 nM): 8% | inhibition at 0.1 µM ([4]; 100 nM): 2% | inhibition at 1 µM ([4]; 1000 nM): 6% | inhibition at 0.01 µM ([5]; 10 nM): 3% | inhibition at 0.1 µM ([5]; 100 nM): -12% | inhibition at 1 µM ([5]; 1000 nM): -1% | inhibition at 0.01 µM ([6]; 10 nM): 2% | inhibition at 0.1 µM ([6]; 100 nM): 4% | inhibition at 1 µM ([6]; 1000 nM): -3% | inhibition at 0.01 µM ([7]; 10 nM): 1% | inhibition at 0.1 µM ([7]; 100 nM): 14% | inhibition at 1 µM ([7]; 1000 nM): 9% | inhibition at 0.01 µM ([8]; 10 nM): -11% | inhibition at 0.1 µM ([8]; 100 nM): -5% | inhibition at 1 µM ([8]; 1000 nM): 6% | inhibition at 0.01 µM ([9]; 10 nM): 0% | inhibition at 0.1 µM ([9]; 100 nM): 10% | inhibition at 1 µM ([9]; 1000 nM): 15% | inhibition at 0.01 µM ([10]; 10 nM): -9% | inhibition at 0.1 µM ([10]; 100 nM): -4% | inhibition at 1 µM ([10]; 1000 nM): -13% | inhibition at 0.01 µM ([11]; 10 nM): 11% | inhibition at 0.1 µM ([11]; 100 nM): 19% | inhibition at 1 µM ([11]; 1000 nM): 17% | inhibition at 0.01 µM ([12]; 10 nM): -6% | inhibition at 0.1 µM ([12]; 100 nM): 2% | inhibition at 1 µM ([12]; 1000 nM): 2%
